This note sets out measurements from patent US11691962B2 (eXIthera Pharmaceuticals, Inc., priority 2018, dated 2023).

Data set [1] has as its target Factor Xa (Homo sapiens (Human), UniProt P00742). Briefly: Dose response assay for protease inhibitors: Factor Xa. The class given is biochemical. Conditions: selectivity, Factor Xa over Factor XIa. A digest of the protocol:
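Glp-Pro-Arg-AMC substrate (thrombin, trypsin) or Pro-Phe-Arg-AMC/Boc-Leu-Gly-Arg-AMC (Factor Xa), diluted to 100 μM, in 20 mM Hepes pH 7.4, 150 mM NaCl, 0.02% Tween 20; enzyme diluted to 0.5 nM before addition. Two-fold serial compound dilutions; kinetic reads at 30° C. Data yield IC50 and Kon.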

A short description of data set [2]: Caco-2 cell permeability assay. Conditions: human, 37° C.; for Papp A→B at 60 min, 10 μM: Caco-2, apical to basolateral; for Papp B→A at 40 min, 10 μM: Caco-2, basolateral to apical. Format: in vitro ADME, human. As to the method: The following procedure was used to determine the ability of a test compound to cross Caco-2 cells (human intestinal epithelial cells derived from a colorectal adenocarcinoma). The cells were seeded at 1×10^5 cells/cm^2 in 96-well Multiscreen™ plates (Millipore). Permeability assays were performed with the cells at days 21-25 post-seeding. Cells are typically used for 15 consecutive passages in culture.
This assay can be performed in either the apical to basolateral (A-B) or basolateral to apical (B-A) direction. The test compound was prepared at 10 μM in HBSS-MES (pH 6.5) or HBSS-HEPES (pH 7.4) with a final DMSO concentration of 1%. The working solution was then centrifuged and the supernatant added to the donor side. The assay plate was incubated at 37° C. with gentle shaking for 60 min or 40 min for the A-B or B-A assay, respectively. Samples were aliquoted from the donor side at time zero and the end point, and from the receiver side at the end point.
Reference compounds, propranolol (highly permeable), labetalol (moderately permeable), ranitidine (poorly permeable), and colchicine (P-glycoprotein substrate) were included in each assay.
Samples are analyzed by HPLC-MS/MS using selected reaction monitoring. The HPLC system consists of a binary LC pump with autosampler, a C-18 column, and a gradient.
The apparent permeability coefficient (Papp) of the test compound (Equation 2) and its recovery (Equation 3) are calculated as follows:
[formula] wherein A is the surface area of the cell monolayer (0.11 cm^2), C is concentration of the test compound expressed as peak area, D denotes donor, and R is receiver. “0”, “mid,” and “end” denote time at zero, mid-point, and end of the incubation, respectively. Δt is the incubation time. V is the volume of the donor or receiver.
This is most likely due to non-specific binding or degradation.
Background: Passage across Caco-2 layers is used to estimate intestinal permeability.

The target in data set [3] is Factor XIa (Homo sapiens (Human), UniProt P03951). As to the kind of experiment: Factor XIa enzyme inhibition assay (dose response, fluorogenic AMC substrate). The class given is biochemical. To be noted: read-out: hFXIa IC50. The method in brief: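 Fluorogenic progress curves (30 min, 1-min reads, 30° C) were recorded for 0.25 nM FXIa cleaving 50 μM Glp-Pro-Arg-AMC in Hepes pH 7.4 buffer with NaCl and Tween 20. Compounds were serially two-fold diluted, and IC50 was fitted with a Hill equation.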
Factor XIa, sequence (P03951 388-625): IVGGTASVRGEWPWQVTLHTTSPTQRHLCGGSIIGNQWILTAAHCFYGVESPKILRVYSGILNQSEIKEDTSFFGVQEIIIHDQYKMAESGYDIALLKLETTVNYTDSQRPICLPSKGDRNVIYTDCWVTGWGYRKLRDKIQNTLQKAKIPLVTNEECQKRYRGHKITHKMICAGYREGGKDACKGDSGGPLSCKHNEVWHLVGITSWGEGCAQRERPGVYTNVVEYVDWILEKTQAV
Factor XIa, sequence (P03951 19-387 partner): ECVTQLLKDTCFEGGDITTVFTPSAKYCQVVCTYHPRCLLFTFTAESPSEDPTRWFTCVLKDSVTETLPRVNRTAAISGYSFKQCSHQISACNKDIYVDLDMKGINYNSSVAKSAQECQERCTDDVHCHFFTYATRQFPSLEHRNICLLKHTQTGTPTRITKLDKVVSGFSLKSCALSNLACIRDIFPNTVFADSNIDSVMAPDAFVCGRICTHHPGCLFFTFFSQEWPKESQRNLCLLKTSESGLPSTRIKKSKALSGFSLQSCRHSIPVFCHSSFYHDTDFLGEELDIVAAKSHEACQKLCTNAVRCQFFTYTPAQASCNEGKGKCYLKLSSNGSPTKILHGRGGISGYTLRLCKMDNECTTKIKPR

Factor Xa, sequence (P00742 235-488): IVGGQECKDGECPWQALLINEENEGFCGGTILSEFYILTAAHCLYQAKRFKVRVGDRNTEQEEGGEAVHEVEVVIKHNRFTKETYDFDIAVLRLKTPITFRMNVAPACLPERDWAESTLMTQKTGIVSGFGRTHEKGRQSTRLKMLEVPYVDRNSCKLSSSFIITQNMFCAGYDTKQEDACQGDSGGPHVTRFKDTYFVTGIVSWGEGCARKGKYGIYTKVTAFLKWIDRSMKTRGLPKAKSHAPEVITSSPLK
Factor Xa, sequence (P00742 41-179 partner): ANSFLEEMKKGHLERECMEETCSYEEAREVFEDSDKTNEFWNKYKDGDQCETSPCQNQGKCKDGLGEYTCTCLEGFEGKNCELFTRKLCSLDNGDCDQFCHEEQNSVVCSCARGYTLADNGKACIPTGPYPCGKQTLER

As usually defined, the Papp A→B is the apparent permeability from the apical to the basolateral side of a cell layer. Low values mean poor permeation, high ones ready permeation. As a reminder, the Papp B→A is the apparent permeability from the basolateral to the apical side of a cell layer. By IC50 is commonly meant the concentration that gives 50% inhibition. As for `CC[C@@H](NC(=O)N1C(=O)[C@H](Cc2ccnc(N)c2)[C@H]1C(=O)N(C)c1cscn1)c1ccccc1` [Compound 1-8, (2S,3R)-3-((2-aminopyridin-4-yl)methyl)-N2-(4-thiazolyl)-N1-((R)-1-phenylpropyl)-N2-methyl-4-oxoazetidine-1,2-dicarboxamide], the “Ratio: FXa/FXIa” value in data set [1] is recorded as “H (“H” indicates 101-1000)”. Further, in data set [2], the Papp A→B at 60 min, 10 μM is below 10 ×10⁻⁶ cm/s and the Papp B→A at 40 min, 10 μM lay in the range of 31 to 50 ×10⁻⁶ cm/s. Besides, the concentration for half-maximal inhibition (IC50) in data set [3] was below 10 nM.
In the same order, the values of `CC[C@@H](NC(=O)N1C(=O)[C@H](Cc2cc(C)nc(N)c2)[C@H]1C(=O)N(C)c1cnn(C)c1)c1cccc(Cl)c1` [Compound 1-15, (2S,3R)-3-((2-amino-6-methylpyridin-4-yl)methyl)-N2-(1-methyl-1H-pyrazol-4-yl)-N1-((R)-1-(3-chlorophenyl)propyl)-N2-methyl-4-oxoazetidine-1,2-dicarboxamide] are “H (“H” indicates 101-1000)”, below 10 ×10⁻⁶ cm/s, 11 to 30 ×10⁻⁶ cm/s and 10 to 100 nM.
`CC[C@@H](NC(=O)N1C(=O)[C@H](Cc2ccnc(N)c2)[C@H]1C(=O)N(C)c1cscn1)c1cccc(Cl)c1` [Compound 1-17, (2S,3R)-3-((2-aminopyridin-4-yl)methyl)-N2-(4-thiazolyl)-N1-((R)-1-(3-chlorophenyl)propyl)-N2-methyl-4-oxoazetidine-1,2-dicarboxamide]: the “Ratio: FXa/FXIa” value in data set [1] is recorded as “H (“H” indicates 101-1000)”. In data set [2], this molecule came in with an apparent permeability from apical to basolateral (Papp A→B) at 60 min, 10 μM of 11 to 30 ×10⁻⁶ cm/s and a Papp B→A at 40 min, 10 μM of 11 to 30 ×10⁻⁶ cm/s. Also, the IC50 in data set [3] is below 10 nM.
Turning to `CC[C@@H](NC(=O)N1C(=O)[C@H](Cc2ccnc(N)c2)[C@H]1C(=O)N(C)c1cnn(C)c1)c1ccc(C)nc1` [Compound 1-18, (2S,3R)-3-((2-aminopyridin-4-yl)methyl)-N2-(1-methyl-1H-pyrazol-4-yl)-N1-((R)-1-(6-methylpyridin-3-yl)propyl)-N2-methyl-4-oxoazetidine-1,2-dicarboxamide], the “Ratio: FXa/FXIa” value in data set [1] is “H (“H” indicates 101-1000)”. In data set [2], the Papp A→B at 60 min, 10 μM was below 10 ×10⁻⁶ cm/s and the apparent permeability from basolateral to apical (Papp B→A) at 40 min, 10 μM was below 10 ×10⁻⁶ cm/s. In addition, the IC50 in data set [3] lay within 10 to 100 nM.
For `CC[C@@H](NC(=O)N1C(=O)[C@H](Cc2cc(C)nc(N)c2)[C@H]1C(=O)N(C)c1ccn(C)n1)c1cccc(C)c1` [Compound 1-22, (2S,3R)-3-((2-amino-6-methylpyridin-4-yl)methyl)-N2-(1-methyl-1H-pyrazol-3-yl)-N1-((R)-1-(3-methylphenyl)propyl)-N2-methyl-4-oxoazetidine-1,2-dicarboxamide], the “Ratio: FXa/FXIa” value in data set [1] is listed as “H (“H” indicates 101-1000)”. In data set [2], this molecule registered a Papp A→B at 60 min, 10 μM below 10 ×10⁻⁶ cm/s and a Papp B→A at 40 min, 10 μM of 11 to 30 ×10⁻⁶ cm/s. Further, the IC50 in data set [3] is below 10 nM.
Regarding `CN(C(=O)[C@@H]1[C@@H](Cc2ccnc(N)c2)C(=O)N1C(=O)N[C@@H](C1CCCCC1)C(F)(F)F)c1ccn(C)n1` [Compound 1-32, (2S,3R)-3-((2-aminopyridin-4-yl)methyl)-N2-(1-methyl-1H-pyrazol-3-yl)-N1-((S)-1-cyclohexyl-2,2,2-trifluoroethyl)-N2-methyl-4-oxoazetidine-1,2-dicarboxamide], the “Ratio: FXa/FXIa” value in data set [1] is “I (“I” indicates > 500)”. In data set [2], this molecule came in with a Papp A→B at 60 min, 10 μM of 11 to 30 ×10⁻⁶ cm/s and a Papp B→A at 40 min, 10 μM of 11 to 30 ×10⁻⁶ cm/s. Besides, the IC50 in data set [3] was below 10 nM.
Consider “(2S,3R)-3-((2-amino-6-methylpyridin-4-yl)methyl)-N2-(1-methyl-1H-imidazol-2-yl)-N1-((R)-1-(3-fluorophenyl)propyl)-N2-methyl-4-oxoazetidine-1,2-dicarboxamide [Compound 1-120]”, for which the “Ratio: FXa/FXIa” value in data set [1] is “I (“I” indicates > 500)”. Besides, the IC50 in data set [3] was below 10 nM.
